Laboratory results taken from ChEMBL document CHEMBL5257080, “Optimization of physicochemical properties of pyrrolidine GPR40 AgoPAMs results in a differentiated profile with improved pharmacokinetics and reduced off-target activities” (Bioorg Med Chem, 2023).
In brackets after ≈: the same amount, converted by molar mass. Activity calls are given as the source filed them. The calls are words filed in the database; no cut-off is given here.

Legend:
[1] = Toxicity in rat assessed as reduction in cell number at 100 mg/kg measured for 28 days; type: organism-based; settings: in vivo, time 28 day
[2] = Metabolic stability in rat liver microsome assessed as parent compound remaining after 10 mins; type: ADME; settings: liver microsomes, read-out: Stability
[3] = species on record: Mus musculus; test: Anti-hyperglycemic activity in wild type mouse assessed as reduction in plasma glucose level by OGTT analysis; type: functional, organism-based
[4] = Half life in mouse at 3 mg/kg, iv; type: ADME, organism-based; settings: in vivo
[5] = molecular target: T1, Cytochrome P450 2C8 (Homo sapiens, UniProt P10632); test: Inhibition of CYP2C8 in human liver microsomes; type: ADME, Microsome
T1 sequence (P10632 whole entry): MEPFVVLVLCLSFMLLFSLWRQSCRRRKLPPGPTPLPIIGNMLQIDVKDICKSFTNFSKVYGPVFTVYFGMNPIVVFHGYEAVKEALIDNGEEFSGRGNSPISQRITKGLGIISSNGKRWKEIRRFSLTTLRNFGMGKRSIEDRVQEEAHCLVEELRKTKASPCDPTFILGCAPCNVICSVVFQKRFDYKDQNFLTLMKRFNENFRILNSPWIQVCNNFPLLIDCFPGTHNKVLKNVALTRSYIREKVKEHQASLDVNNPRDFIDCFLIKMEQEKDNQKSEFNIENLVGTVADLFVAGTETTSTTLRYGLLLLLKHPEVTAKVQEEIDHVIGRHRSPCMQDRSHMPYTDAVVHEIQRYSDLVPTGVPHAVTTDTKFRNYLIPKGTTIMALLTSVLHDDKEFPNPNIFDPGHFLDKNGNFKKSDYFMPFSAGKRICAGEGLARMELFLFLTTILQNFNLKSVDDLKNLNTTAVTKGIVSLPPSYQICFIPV

[6] = Clearance in mouse at 3 mg/kg, iv; type: ADME, organism-based; settings: in vivo
[7] = tested on: Rattus norvegicus; test: Anti-hyperglycemic activity against Sprague-Dawley rat assessed as reduction in plasma glucose AUC at 0.3 mg/kg, po measured at 3 hrs in presence of BMS-538305 by OGTT analysis; type: functional; design: scale not given: the % may be the effect or the level left
[8] = molecular target: Cytochrome P450 2C9 (Homo sapiens, UniProt P11712); test: Inhibition of CYP2C9 in human liver microsomes; type: ADME, Microsome
[9] = Cmax in rat at 60 mg/kg qd; type: ADME, organism-based; design: dose 60 mg/kg; settings: in vivo
[10] = species on record: Mus musculus; test: Anti-hyperglycemic activity in GPR40 knockout mouse assessed as reduction in plasma glucose level by OGTT analysis; type: functional, organism-based
[11] = Oral bioavailability in mouse at 1 mg/kg; type: ADME, organism-based; settings: in vivo
[12] = Cmax in rat at 1 mg/kg, po; type: ADME, organism-based; design: dose 1 mg/kg, route po; settings: in vivo
[13] = molecular target: Cytochrome P450 2D6 (Homo sapiens, UniProt P10635); test: Inhibition of CYP2D6 in human liver microsomes; type: ADME, Microsome
[14] = molecular target: Free fatty acid receptor 1 (Mus musculus, UniProt Q76JU9); test: Positive allosteric modulation of mouse GPR40
[15] = Toxicity in rat assessed as reduction in cell size at 100 mg/kg measured for 28 days; type: organism-based; settings: in vivo, time 28 day
[16] = Total AUC in rat at 1 mg/kg, po; type: ADME, organism-based; design: dose 1 mg/kg, route po; settings: in vivo
[17] = AUC (0 to 24 hrs) in rat at 60 mg/kg qd; type: ADME, organism-based; design: dose 60 mg/kg; settings: in vivo
[18] = AUC (0-7hrs) in mouse at 1 mg/kg; type: ADME, organism-based; design: dose 1 mg/kg; settings: in vivo
[19] = molecular target: Cytochrome P450 3A4 (Homo sapiens, UniProt P08684); test: Inhibition of CYP3A4 in human liver microsomes; type: ADME, Microsome
[20] = molecular target: T2, Cytochrome P450 2B6 (Homo sapiens, UniProt P20813); test: Inhibition of CYP2B6 in human liver microsomes; type: ADME, Microsome
T2 sequence (P20813 whole entry): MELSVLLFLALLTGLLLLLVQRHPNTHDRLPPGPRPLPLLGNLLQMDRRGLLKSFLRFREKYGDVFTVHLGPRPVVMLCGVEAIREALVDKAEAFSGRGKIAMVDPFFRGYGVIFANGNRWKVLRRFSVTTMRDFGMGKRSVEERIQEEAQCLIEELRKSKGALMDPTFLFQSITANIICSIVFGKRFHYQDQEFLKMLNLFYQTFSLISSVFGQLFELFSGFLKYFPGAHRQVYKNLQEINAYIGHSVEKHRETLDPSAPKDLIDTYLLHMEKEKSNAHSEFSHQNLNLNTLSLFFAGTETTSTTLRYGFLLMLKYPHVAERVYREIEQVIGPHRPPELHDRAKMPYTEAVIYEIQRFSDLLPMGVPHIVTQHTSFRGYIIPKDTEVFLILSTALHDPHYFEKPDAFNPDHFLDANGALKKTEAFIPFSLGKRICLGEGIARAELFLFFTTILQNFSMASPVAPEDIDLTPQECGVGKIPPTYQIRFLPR

[21] = Total AUC in mouse at 1 mg/kg, po; type: ADME, organism-based; design: dose 1 mg/kg, route po; settings: in vivo
[22] = tested on: Rattus norvegicus; test: Hyperglycemic activity in Sprague-Dawley rat assessed as effect on blood glucose level at 30 to 100 mg/kg, qd by glucometer; type: functional, organism-based; settings: dose 30-100 mg/kg
[23] = Tmax in rat at 12 mg/kg qd; type: ADME, organism-based; settings: in vivo
[24] = Volume of distribution at steady state in mouse at 3 mg/kg, iv; type: ADME, organism-based; settings: in vivo, read-out: Vdss
[25] = molecular target: T3, Free fatty acid receptor 1 (Homo sapiens, UniProt O14842); test: Positive allosteric modulation of human GPR40 by calcium based FLIPR analysis
[26] = tested on: Rattus norvegicus; test: Anti-hyperglycemic activity against Sprague-Dawley rat assessed as reduction in plasma glucose AUC at 0.3 mg/kg, po measured for 20 to 120 mins in presence of BMS-538305 by OGTT analysis; type: functional; design: scale not given: the % may be the effect or the level left; settings: time 20-120 min
[27] = tested on: Rattus norvegicus; test: Anti-hyperglycemic activity against Sprague-Dawley rat assessed as reduction in plasma glucose level at 3 mg/kg, po measured for 20 to 120 mins by OGTT analysis; type: functional, organism-based; settings: time lower 20.0 min, time upper […]
[28] = Solubility of the compound in FeSSIF at pH 5; type: ADME
[29] = Metabolic stability in mouse liver microsome assessed as parent compound remaining after 10 mins; type: ADME; settings: liver microsomes, read-out: Stability
[30] = Toxicity in rat assessed as NOAEL at 100 mg/kg measured for 28 days; type: organism-based; settings: in vivo, time 28 day
[31] = Cmax in rat at 12 mg/kg qd; type: ADME, organism-based; design: dose 12 mg/kg; settings: in vivo
[32] = Oral bioavailability in rat at 1 mg/kg; type: ADME, organism-based; settings: in vivo
[33] = AUC (0 to 24 hrs) in rat at 100 mg/kg, po qd; type: ADME, organism-based; design: dose 100 mg/kg, route po; settings: in vivo
[34] = Solubility in phosphate buffer at pH 6.5; type: physicochemical
[35] = AUC (0 to 24 hrs) in rat at 300 mg/kg qd; type: ADME, organism-based; design: dose 300 mg/kg; settings: in vivo
[36] = molecular target: T3, Free fatty acid receptor 1; test: Positive allosteric modulation of human GPR40 expressed in HEK293 cells assessed as cAMP accumulation; type: cell-based
[37] = Cmax in mouse at 1 mg/kg; type: ADME, organism-based; design: dose 1 mg/kg; settings: in vivo
[38] = Lipophilicity, logD of compound; type: physicochemical; settings: octanol/water
[39] = Cmax in mouse at 1 mg/kg, po; type: ADME, organism-based; design: dose 1 mg/kg, route po; settings: in vivo
[40] = Solubility of the compound in FaSSIF at pH 6.5; type: ADME
[41] = Volume of distribution at steady state in rat at 3 mg/kg, iv; type: ADME, organism-based; settings: in vivo, read-out: Vdss
[42] = AUC (0 to 24 hrs) in rat at 12 mg/kg qd; type: ADME, organism-based; design: dose 12 mg/kg; settings: in vivo
[43] = Half life in rat at 3 mg/kg, iv; type: ADME, organism-based; settings: in vivo
[44] = Metabolic stability in human liver microsome assessed as parent compound remaining after 10 mins; type: ADME; settings: liver microsomes, read-out: Stability
[45] = Permeability of compound across apical to basolateral side in dog MDCK cells; type: ADME, cell-based, Canis lupus familiaris; settings: read-out: permeability
[46] = Toxicity in rat assessed as vacuolation in pancrease at 100 mg/kg measured for 28 days; type: organism-based; settings: in vivo, time 28 day
[47] = molecular target: Cytochrome P450 2C19 (Homo sapiens, UniProt P33261); test: Inhibition of CYP2C19 in human liver microsomes; type: ADME, Microsome
[48] = Clearance in rat at 3 mg/kg, iv; type: ADME, organism-based; settings: in vivo
[49] = Plasma protein binding in human assessed as fraction unbound; type: ADME, cell-free
[50] = Plasma protein binding in mouse assessed as fraction unbound; type: ADME, cell-free
[51] = tested on: Rattus norvegicus; test: Anti-hyperglycemic activity against Sprague-Dawley rat assessed as reduction in plasma glucose AUC at 0.3 mg/kg, po measured for 20 to 120 mins by OGTT analysis; type: functional, organism-based; settings: time lower 20.0 min, time upper […]
[52] = Solubility of the compound in FeSSIF at pH 6.5; type: ADME
[53] = Tmax in rat at 60 mg/kg qd; type: ADME, organism-based; settings: in vivo
[54] = Toxicity in rat assessed as NOAEL by measuring AUC (0 to 24 hrs) measured for 28 days; settings: in vivo, time 28 day
[55] = Tmax in rat at 300 mg/kg qd; type: ADME, organism-based; settings: in vivo
[56] = Cmax in rat at 300 mg/kg qd; type: ADME, organism-based; design: dose 300 mg/kg; settings: in vivo

T3 sequence (O14842 whole entry): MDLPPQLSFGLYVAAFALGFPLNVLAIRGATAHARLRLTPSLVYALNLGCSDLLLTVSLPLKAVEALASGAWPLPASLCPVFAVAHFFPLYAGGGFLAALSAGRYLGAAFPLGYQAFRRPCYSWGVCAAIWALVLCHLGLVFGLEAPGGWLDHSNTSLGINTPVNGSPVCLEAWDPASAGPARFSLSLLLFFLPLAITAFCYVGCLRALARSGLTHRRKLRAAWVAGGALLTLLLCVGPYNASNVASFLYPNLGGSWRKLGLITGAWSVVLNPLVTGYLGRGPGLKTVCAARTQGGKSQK
Cytochrome P450 3A4, sequence (P08684 whole entry): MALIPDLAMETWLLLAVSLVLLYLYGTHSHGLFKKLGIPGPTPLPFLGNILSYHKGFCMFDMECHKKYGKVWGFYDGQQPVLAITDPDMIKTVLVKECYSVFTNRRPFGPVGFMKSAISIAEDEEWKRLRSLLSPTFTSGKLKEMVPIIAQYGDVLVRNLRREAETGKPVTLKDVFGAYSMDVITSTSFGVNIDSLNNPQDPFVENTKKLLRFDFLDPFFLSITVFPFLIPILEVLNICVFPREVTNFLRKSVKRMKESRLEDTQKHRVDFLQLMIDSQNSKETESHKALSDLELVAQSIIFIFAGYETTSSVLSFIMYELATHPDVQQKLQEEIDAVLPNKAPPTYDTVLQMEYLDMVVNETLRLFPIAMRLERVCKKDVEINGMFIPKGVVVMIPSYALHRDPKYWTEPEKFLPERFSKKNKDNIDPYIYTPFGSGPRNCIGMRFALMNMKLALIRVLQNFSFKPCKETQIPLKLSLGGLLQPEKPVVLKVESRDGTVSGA
Cytochrome P450 2D6, sequence (P10635 whole entry): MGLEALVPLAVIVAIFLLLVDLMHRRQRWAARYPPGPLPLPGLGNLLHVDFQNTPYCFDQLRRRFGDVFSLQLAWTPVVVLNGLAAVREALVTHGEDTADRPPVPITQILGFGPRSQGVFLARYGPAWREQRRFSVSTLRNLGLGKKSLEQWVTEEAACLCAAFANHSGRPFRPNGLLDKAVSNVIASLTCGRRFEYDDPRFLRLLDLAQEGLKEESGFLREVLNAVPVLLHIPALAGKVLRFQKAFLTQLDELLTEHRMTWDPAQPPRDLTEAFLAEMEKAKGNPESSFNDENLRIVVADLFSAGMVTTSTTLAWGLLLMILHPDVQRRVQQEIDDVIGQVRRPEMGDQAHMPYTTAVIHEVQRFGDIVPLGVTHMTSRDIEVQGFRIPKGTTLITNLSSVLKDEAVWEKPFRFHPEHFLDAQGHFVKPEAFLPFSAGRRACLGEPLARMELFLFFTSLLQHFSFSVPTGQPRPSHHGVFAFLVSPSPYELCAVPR
Cytochrome P450 2C19, sequence (P33261 whole entry): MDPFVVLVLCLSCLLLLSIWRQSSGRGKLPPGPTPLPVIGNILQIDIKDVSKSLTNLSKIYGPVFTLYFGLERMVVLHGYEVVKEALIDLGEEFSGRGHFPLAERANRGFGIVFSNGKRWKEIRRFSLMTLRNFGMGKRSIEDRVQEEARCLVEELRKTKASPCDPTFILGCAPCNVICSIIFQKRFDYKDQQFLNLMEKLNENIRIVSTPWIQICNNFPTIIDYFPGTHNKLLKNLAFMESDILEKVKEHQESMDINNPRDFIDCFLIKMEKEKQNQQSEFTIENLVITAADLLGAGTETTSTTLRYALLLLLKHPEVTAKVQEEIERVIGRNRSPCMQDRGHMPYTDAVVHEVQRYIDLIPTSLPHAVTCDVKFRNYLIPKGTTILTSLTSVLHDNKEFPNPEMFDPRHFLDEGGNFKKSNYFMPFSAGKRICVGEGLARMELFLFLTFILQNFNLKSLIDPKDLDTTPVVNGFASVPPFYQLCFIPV
Cytochrome P450 2C9, sequence (P11712 whole entry): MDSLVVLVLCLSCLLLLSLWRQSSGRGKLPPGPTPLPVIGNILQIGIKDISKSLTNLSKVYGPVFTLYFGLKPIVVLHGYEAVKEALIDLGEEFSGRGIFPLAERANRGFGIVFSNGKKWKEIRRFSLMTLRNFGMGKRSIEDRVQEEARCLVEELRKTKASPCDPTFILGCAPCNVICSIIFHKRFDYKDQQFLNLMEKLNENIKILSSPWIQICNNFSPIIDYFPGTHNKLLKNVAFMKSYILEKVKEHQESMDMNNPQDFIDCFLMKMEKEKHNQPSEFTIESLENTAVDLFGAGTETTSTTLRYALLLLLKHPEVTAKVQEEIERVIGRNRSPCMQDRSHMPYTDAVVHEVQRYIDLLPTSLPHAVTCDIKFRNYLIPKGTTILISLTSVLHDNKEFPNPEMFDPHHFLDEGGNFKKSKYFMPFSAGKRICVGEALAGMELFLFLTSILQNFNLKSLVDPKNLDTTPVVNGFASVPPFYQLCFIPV
Free fatty acid receptor 1 (Mus musculus, UniProt Q76JU9), sequence (Q76JU9 whole entry): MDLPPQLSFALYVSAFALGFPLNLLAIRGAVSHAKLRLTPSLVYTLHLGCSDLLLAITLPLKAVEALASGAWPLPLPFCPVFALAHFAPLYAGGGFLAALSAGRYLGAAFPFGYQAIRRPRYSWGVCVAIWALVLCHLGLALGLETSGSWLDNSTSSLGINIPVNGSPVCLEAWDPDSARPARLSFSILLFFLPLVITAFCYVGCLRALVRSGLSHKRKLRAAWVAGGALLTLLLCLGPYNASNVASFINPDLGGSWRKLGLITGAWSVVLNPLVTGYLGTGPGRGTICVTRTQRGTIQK

remaining at 10 min [2]: 77%
half-life [4]: 3.4 h
IC50 [5]: 8.3 µM
clearance [6]: 7.9 mL/min/kg
IC50 [8]: 34 µM
Cmax [9]: 49 µM
bioavailability [11]: 100%
Cmax [12]: 1.6 µM
IC50 [13]: 40 µM
EC50 [14]: 0.014 µM
AUC [16]: 2.2 µM·h
AUC [17]: 534 µM·h
AUC(0-t) [18]: 4.4 µM·h
IC50 [19]: 40 µM
IC50 [20]: 29 µM
AUC [21]: 4.4 µM·h
Tmax [23]: 2 h
Vd [24]: 1.4 L/kg
EC50 [25]: 0.049 µM
solubility [28]: 383 µg/mL (≈ 681 µM)
remaining at 10 min [29]: 79%
Cmax [31]: 11 µM
bioavailability [32]: 100%
AUC [33]: 1480 µM·h
solubility [34]: 28 µg/mL (≈ 49.8 µM)
AUC [35]: 3150 µM·h
EC50 [36]: 1.8 µM
Cmax [37]: 2.8 µM
logD [38]: 1.32
Cmax [39]: 2.8 µM
solubility [40]: 239 µg/mL (≈ 425 µM)
Vd [41]: 1.1 L/kg
AUC [42]: 84 µM·h
half-life [43]: 3.6 h
remaining at 10 min [44]: 100%
Papp A→B [45]: 24.3 ×10⁻⁶ cm/s
IC50 [47]: 40 µM
clearance [48]: 5.9 mL/min/kg
Fu [49]: < 0.1%
Fu [50]: 0.9%
solubility [52]: 1300 µg/mL (≈ 2320 µM)
Tmax [53]: 2 h
Tmax [55]: 2 h
Cmax [56]: 151 µM
Structure (SMILES): COCCCO[C@H]1CN(c2ccc(O[C@@H]3CCN(c4cc(OC)ncc4Cl)C[C@H]3C)cc2)[C@@H](CC(=O)O)[C@@H]1C
Activity [1]: Non-Toxic
Activity [3]: Active
Activity [7]: 148%
Activity [10]: inactive
Activity [15]: Non-Toxic
Activity [22]: inactive
Activity [26]: 26%
Activity [27]: Active
Activity [30]: Non-Toxic
Activity [46]: Toxic
Activity [51]: inactive
AUC at […] [54]: 53 µM·h
